Results: the CheMixHub viscosity set

Experiment: xn = mol fraction of the nth substance listed

CCOC(C)=O + CCCCCC
Details	viscosity [mPa·s]
293.15 K, 101 kPa, x1 = 0.0998	0.3115
293.15 K, 101 kPa, x1 = 0.2074	0.3152
293.15 K, 101 kPa, x1 = 0.2978	0.3217
293.15 K, 101 kPa, x1 = 0.4046	0.3303
293.15 K, 101 kPa, x1 = 0.5034	0.3416
293.15 K, 101 kPa, x1 = 0.614	0.3599
293.15 K, 101 kPa, x1 = 0.6748	0.3683
293.15 K, 101 kPa, x1 = 0.8018	0.3963
293.15 K, 101 kPa, x1 = 0.9118	0.4248
298.15 K, 101 kPa, x1 = 0.0436	0.29
298.15 K, 101 kPa, x1 = 0.0998	0.2967
298.15 K, 101 kPa, x1 = 0.15	0.293
298.15 K, 101 kPa, x1 = 0.2074	0.3001
298.15 K, 101 kPa, x1 = 0.2504	0.298
298.15 K, 101 kPa, x1 = 0.2978	0.3052
298.15 K, 101 kPa, x1 = 0.3494	0.305
298.15 K, 101 kPa, x1 = 0.4046	0.3142
298.15 K, 101 kPa, x1 = 0.4477	0.314
298.15 K, 101 kPa, x1 = 0.4908	0.319
298.15 K, 101 kPa, x1 = 0.5034	0.3265
298.15 K, 101 kPa, x1 = 0.5489	0.326
298.15 K, 101 kPa, x1 = 0.614	0.3413
298.15 K, 101 kPa, x1 = 0.6485	0.342
298.15 K, 101 kPa, x1 = 0.6748	0.3496
298.15 K, 101 kPa, x1 = 0.7513	0.361
298.15 K, 101 kPa, x1 = 0.8018	0.3755
298.15 K, 101 kPa, x1 = 0.8507	0.384
298.15 K, 101 kPa, x1 = 0.9118	0.402
298.15 K, 101 kPa, x1 = 0.942	0.41
303.15 K, 101 kPa, x1 = 0.0998	0.283
303.15 K, 101 kPa, x1 = 0.2032	0.2874
303.15 K, 101 kPa, x1 = 0.2074	0.2861
303.15 K, 101 kPa, x1 = 0.2978	0.2901
303.15 K, 101 kPa, x1 = 0.4017	0.3009
303.15 K, 101 kPa, x1 = 0.4046	0.2991
303.15 K, 101 kPa, x1 = 0.5013	0.3117
303.15 K, 101 kPa, x1 = 0.5034	0.3092
303.15 K, 101 kPa, x1 = 0.599	0.3249
303.15 K, 101 kPa, x1 = 0.614	0.3231
303.15 K, 101 kPa, x1 = 0.6748	0.3317
303.15 K, 101 kPa, x1 = 0.8018	0.3565
303.15 K, 101 kPa, x1 = 0.8203	0.3611
303.15 K, 101 kPa, x1 = 0.9118	0.3812
303.15 K, 101.3 kPa, x1 = 0.106	0.2774
303.15 K, 101.3 kPa, x1 = 0.1995	0.2799
303.15 K, 101.3 kPa, x1 = 0.3097	0.2869
303.15 K, 101.3 kPa, x1 = 0.4073	0.2945
303.15 K, 101.3 kPa, x1 = 0.5055	0.3045
303.15 K, 101.3 kPa, x1 = 0.6094	0.3179
303.15 K, 101.3 kPa, x1 = 0.7062	0.3331
303.15 K, 101.3 kPa, x1 = 0.8061	0.3523
303.15 K, 101.3 kPa, x1 = 0.9036	0.3748
308.15 K, 101 kPa, x1 = 0.0436	0.272
308.15 K, 101 kPa, x1 = 0.15	0.274
308.15 K, 101 kPa, x1 = 0.2504	0.277
308.15 K, 101 kPa, x1 = 0.3494	0.282
308.15 K, 101 kPa, x1 = 0.4477	0.29
308.15 K, 101 kPa, x1 = 0.4908	0.294
308.15 K, 101 kPa, x1 = 0.5489	0.3
308.15 K, 101 kPa, x1 = 0.6485	0.313
308.15 K, 101 kPa, x1 = 0.7513	0.33
308.15 K, 101 kPa, x1 = 0.8507	0.349
308.15 K, 101 kPa, x1 = 0.942	0.371
313.15 K, 101 kPa, x1 = 0.0998	0.2582
313.15 K, 101 kPa, x1 = 0.2074	0.2604
313.15 K, 101 kPa, x1 = 0.2978	0.2643
313.15 K, 101 kPa, x1 = 0.4046	0.2723
313.15 K, 101 kPa, x1 = 0.5034	0.2806
313.15 K, 101 kPa, x1 = 0.614	0.2933
313.15 K, 101 kPa, x1 = 0.6748	0.3004
313.15 K, 101 kPa, x1 = 0.8018	0.3224
313.15 K, 101 kPa, x1 = 0.9118	0.3443

OCC(O)CO + CN(C)C=O
viscosity [mPa·s], 101 kPa
Details	x1 = 0.105	x1 = 0.209	x1 = 0.312	x1 = 0.414	x1 = 0.514	x1 = 0.613	x1 = 0.712	x1 = 0.809	x1 = 0.905
303.15 K	1.5	2.41	4.22	7.36	14.2	19.9	64.6	127.5	258.7
318.15 K	1.24	1.84	2.91	4.77	8.35	–	27.3	50.5	91.1

COC(=O)CC(C)=O + CCCCCCCO
viscosity [mPa·s], 101.33 kPa
Details	x1 = 0.1016	x1 = 0.2071	x1 = 0.3081	x1 = 0.4096	x1 = 0.5099	x1 = 0.6072	x1 = 0.7071	x1 = 0.8059	x1 = 0.9033
298.15 K	4.066	3.167	2.651	2.278	2.012	1.842	1.663	1.546	1.512
303.15 K	3.465	2.734	2.298	1.981	1.754	1.624	1.485	1.393	1.366
308.15 K	2.97	2.357	1.998	1.733	1.545	1.452	1.337	1.264	1.245

CCOC(C)=O + C1COCCO1
Details	viscosity [mPa·s]
303.15 K, 101 kPa, x2 = 0.1021	0.435
303.15 K, 101 kPa, x2 = 0.2024	0.466
303.15 K, 101 kPa, x2 = 0.2982	0.505
303.15 K, 101 kPa, x2 = 0.4026	0.553
303.15 K, 101 kPa, x2 = 0.4968	0.602
303.15 K, 101 kPa, x2 = 0.6025	0.668
303.15 K, 101 kPa, x2 = 0.697	0.742
303.15 K, 101 kPa, x2 = 0.8007	0.834
303.15 K, 101 kPa, x2 = 0.9003	0.948
303.15 K, 101.32 kPa, x1 = 0.0451	1.02
303.15 K, 101.32 kPa, x1 = 0.0948	0.948
303.15 K, 101.32 kPa, x1 = 0.1332	0.901
303.15 K, 101.32 kPa, x1 = 0.1779	0.848
303.15 K, 101.32 kPa, x1 = 0.2236	0.802
303.15 K, 101.32 kPa, x1 = 0.3187	0.717
303.15 K, 101.32 kPa, x1 = 0.4176	0.648
303.15 K, 101.32 kPa, x1 = 0.467	0.616
303.15 K, 101.32 kPa, x1 = 0.5155	0.59
303.15 K, 101.32 kPa, x1 = 0.6182	0.539
303.15 K, 101.32 kPa, x1 = 0.7243	0.497
303.15 K, 101.32 kPa, x1 = 0.8297	0.456
303.15 K, 101.32 kPa, x1 = 0.9411	0.422
308.15 K, 101 kPa, x2 = 0.1	0.439
308.15 K, 101 kPa, x2 = 0.2	0.475
308.15 K, 101 kPa, x2 = 0.3	0.506
308.15 K, 101 kPa, x2 = 0.4	0.542
308.15 K, 101 kPa, x2 = 0.5	0.58
308.15 K, 101 kPa, x2 = 0.6	0.625
308.15 K, 101 kPa, x2 = 0.8	0.756
308.15 K, 101 kPa, x2 = 0.9	0.852
313.15 K, 101.32 kPa, x1 = 0.209	0.717
313.15 K, 101.32 kPa, x1 = 0.405	0.583
313.15 K, 101.32 kPa, x1 = 0.5144	0.528
313.15 K, 101.32 kPa, x1 = 0.602	0.49
313.15 K, 101.32 kPa, x1 = 0.7994	0.423
